Test results from patent US20110045459A1, “Molecular determinants of EGFR kinase inhibitor response in glioblastoma” (priority 2005, published 2011).
“Also recorded” adds a separate entry of the source.

Tested on: U87MG glioblastoma cells
Experiment: Relative sensitivity to erlotinib of U87MG lines expressing PTEN, EGFR, EGFRvIII (crystal violet)
Type: cell-based
Conditions: erlotinib 0-10 μM, 10-14 days, U87-PTEN
Protocol: FIG. 3. […] 1000 cells/well of each cell line was seeded into 96-well plates in 8 replicates. […] Experiments were repeated 3 times in 8 replicates for each condition.
Following retroviral transduction we selected the following stable cell lines: U87-PTEN, U87-EGFR, U87-PTEN-EGFR, U87-EGFRvIII and U87-PTEN-EGFRvIII.
Functional analysis of effect of EGFR, EGFRvIII and PTEN coexpression: Human EGFR and EGFRvIII cDNAs were retrovirally introduced into U87MG and U87MG-PTEN over-expressing cells and selected for antibiotic resistance. Multiple stable clones were analyzed for the expression of PTEN, EGFR or EGFRvIII by immunoblot. […] The background reading of the wells containing medium alone was subtracted from experimental wells.

C#Cc1cccc(Nc2ncnc3cc(OCCOC)c(OCCOC)cc23)c1 [Erlotinib]
sensitization of glioblastoma cells to erlotinib: EGFRvIII and PTEN co-expression sensitizes glioblastoma cells to erlotinib; also recorded: EGFRvIII sensitized glioblastoma cells to erlotinib, but only when PTEN was co-expressed
